Reference: patent publication US10145845B2, “On-chip assay for environmental surveillance” (priority 2015, dated 2018)

Assays:
RAD54 protein = settings: yeast cells, H2O2 170, 1700 and 17,000 ppm for 60 minutes
Method: Yeast cells grown in YPD (for Yeast-extract, Peptone and Dextrose culture medium) was harvested in early saturation phase of growth and distributed into the first row of the microchip (A1 through A3), covered with a plexiglass lid and stored as slurries (10^7 cells) at 4° C. until use. H2O2 was added to experimental wells and deionized water to the control well.
A single time, multiple dose study was done at 170, 1700 and 17,000 ppm for 60 minutes. Y-PER (for Yeast-Protein Extraction Reagent) supplemented with protease inhibitor cocktail was added to the cells and incubated for 20 minutes at room temperature (RT).
The supernatant (cell extract) was transferred using an ultrafine pipette tip to the second row of wells (B1 through B3) and incubated with the colloidal SERS immunosensor for RAD54 detection by incubating for 90 minutes at RT. […]
The spectra were analyzed by multivariate PCA-LDA (principle component analysis and linear discriminant analysis) using the leave-one-out cross validation model. The levels of RAD54 protein were measured using the SERS-linked immunosensor assay and RAD54 levels expressed in response to H2O2 were correlated to EPA 3-tier guideline levels, IDLHs (for Immediately Dangerous to Life and Health concentrations) as determined by the Center for Disease Control and Prevention (CDC).

[1] = drafted three tiered IDLHs; cited from earlier work

OO [H2O2, Hydrogen peroxide]
peak intensity of protein measured at 1390 cm^-1 (carboxylic band, SLISA) (RAD54 protein): dose-dependent increase
increase in RAD54 expression as compared to control (baseline expression by cells with no toxin exposure) (RAD54 protein; SLISA and ELISA): ~4 fold
IDLH tier II (lethal, long-lasting disabling effect) [1]: ≤ 1000 ppm
IDLH tier III (lethal, life-threatening effect or even death) [1]: > 1000 ppm
